For data set [1], the target named is T1, chymotrypsin-like (CT-L) activity of purified 20S rabbit proteasome (Oryctolagus cuniculus, UniProt G1T4Q9).
T1 sequence (G1T4Q9 1-263): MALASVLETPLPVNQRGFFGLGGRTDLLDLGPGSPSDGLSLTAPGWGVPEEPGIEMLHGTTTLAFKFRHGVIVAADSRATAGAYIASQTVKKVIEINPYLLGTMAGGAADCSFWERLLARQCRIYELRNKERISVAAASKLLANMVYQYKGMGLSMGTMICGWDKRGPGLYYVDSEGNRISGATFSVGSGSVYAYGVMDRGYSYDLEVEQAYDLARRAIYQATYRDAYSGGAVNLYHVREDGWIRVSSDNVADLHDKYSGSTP
Briefly: Proteolytic activity of purified 20S proteasome, fluorogenic substrate Suc-Leu-Leu-Val-Tyr-AMC. The class given is biochemical. The settings on record: for IC50 / proteasome (chymotrypsin-like) inhibitory activity, in words: purified rabbit 20S proteasome; for decrease of proteasome inhibition activity relative to comparator compound: 14u, 14v vs linear acetic acid analogues, 14q vs lead compound 10a.
Protocol: The inhibitory activity of the compounds was calculated based on vehicle control). This technique monitors the hydrolytic release of a coumarin species from a synthetic peptide substrate.
The assay was conducted by using a fluorogenic peptide as substrate to test synthesized compounds for inhibitory activity against the chymotrypsin-like activity of the purified rabbit 20S proteasome. Briefly, 70 ng of purified 20S proteasome was incubated with 20 μM Suc-Leu-Leu-Val-Tyr-AMC for 1 hour at 37° C. in 100 μl of assay buffer (50 mM Tris-HCl, pH 7.6) with or without inhibitors. After incubation, production of hydrolyzed 7-amido-4-methyl-coumarin (AMC) was measured using a WALLAC Victor2 1420 Multilabel Counter with an excitation filter of 355 nm and an emission filter of 460 nm (Perkin Elmer Life Sciences, Turku, Finland). The inhibitory activity of the compounds was calculated based on vehicle control.

Data set [2] addresses T2, CT-L activity of the proteasome in MCF-7 human breast cancer cells (Homo sapiens, UniProt P20618+P28074).
T2 construct: endogenous in cells; host or cells: MCF-7
Briefly: Proteolytic activity in cell lysates of treated intact MCF-7 cells. The class given is cell-based. The settings on record: intact cells treated 16 h, CT-L measured in cell lysates; two determinations where two values. The protocol: Human MCF-7 breast cancer cells were cultured in DMEM medium containing 10% fetal calf serum (FCS) and 100 units/ml of penicillin and 100 μg/ml of streptomycin. Cells were maintained at 37° C. in a humidified incubator in an atmosphere of 5% CO2. Cells were treated with different concentrations of PI-083, YG1-080, YG1-075, HL2-090-2, HL2-090-4, HL2-090-6, and HL2-090-9 or vehicle control (DMSO) for 16 h.
Intact cells were treated with compounds and lysates prepared as described above. Cell lysates (5 μg) was incubated with 20 μM Suc-Leu-Leu-Val-Tyr-AMC for the CT-L activity for 1 h at 37° C. in 100 μl of assay buffer (50 mM Tris-HCl, pH 7.6). After incubation, production of hydrolyzed 7-amido-4-methyl-coumarin (AMC) groups was measured using a WALLAC Victor^2 1420 Multilabel Counter with an excitation filter of 355 nm and an emission filter of 460 nm (Perkin Elmer Life Sciences, Turku, Finland).

Data set [3] has as its system MCF-7 breast cancer cells. Briefly: MTT metabolism assay. As to conditions: MCF-7, 72 h (Table 6), read-out: IC50 for cell viability measured by MTT assay in MCF-7 human breast cancer cells. It is filed as cell-based, human. The method, then:
Cells were plated in 96-well plates in 100 μl medium and allowed to attach overnight. […] Media was aspirated after 24 or 72 hours and replaced with 100 μl complete media containing 1 mg/ml MTT and incubated for three hours at 37° C. in 5% CO2 humidified incubator. Media was then aspirated and DMSO was added. Cells were incubated for 10 min at room temperature while shaking, and the absorbance was determined at 540 nm using a μQuant spectrophotometric plate reader (Bio-TEK, Winooski, Vt.).
Cells were plated in 96-well plates in 100 μl medium and allowed to attach overnight. Cells were then incubated for 72 h with varying concentrations of PI-083, YG1-080, YG1-075, HL2-090-2, HL2-090-4, HL2-090-6, and HL2-090-9 or vehicle control (DMSO). Media was aspirated and replaced with 100 μl complete media containing 1 mg/ml MTT and incubated for three hours at 37° C. in 5% CO2 humidified incubator. Media was then aspirated and DMSO was added. Cells were incubated for 10 min at room temperature while shaking, and the absorbance was determined at 540 nm using a μQuant spectrophotometric plate reader (Bio-TEK, Winooski, Vt.).
(Tetrazolium dyes change colour on reduction, which living cells bring about.)

Setting [4] is: PI-083 derivatives (Table 7, naphthoquinone library), read-out: IC50 (μM) Chymotrypsin-like activity.
[5] abbreviates: hydronaphthoquinone sulfonamides (Table 9), read-out: IC50 (μM), inhibition of chymotrypsin-like activity.

Where two headings read alike, the source gives them in different places. A value given as a limit tells only on which side of the number the result lay.

In the case of `O=C1C(Cl)=C(Nc2ccc(S(=O)(=O)Nc3cnn(-c4ccccc4)c3)cc2)C(=O)c2ccccc21` [Compound 2b, 4-(3-chloro-1,4-dioxo-1,4-dihydronaphthalen-2-ylamino)-N-(1-phenyl-1H-pyrazol-4-yl)benzenesulfonamide], the melting point (commonly the temperature, or range, at which the solid turns liquid) lay in the range of 230 to 231 °C. Further, the IC50 – broadly, the concentration that inhibits the measured activity by half – in data set [1] (setting [4]) is 7.4 µM. In addition, in data set [2], the IC50 is > 10 µM.
For `Cc1cc(NS(=O)(=O)c2ccc(NC3=C(Cl)C(=O)c4ccccc4C3=O)cc2)no1` [Compound 2d, 4-(3-chloro-1,4-dioxo-1,4-dihydronaphthalen-2-ylamino)-N-(5-methylisoxazol-3-yl)benzenesulfonamide], in that order: 215 to 217 °C, 5.9 µM and > 10 µM.
Taken in the same sequence, the figures for `Cc1nnc(NS(=O)(=O)c2ccc(NC3=C(Cl)C(=O)c4ccccc4C3=O)cc2)s1` [Compound 2f, 4-(3-chloro-1,4-dioxo-1,4-dihydronaphthalen-2-ylamino)-N-(5-methyl-1,3,4-thiadiazol-2-yl)benzenesulfonamide] were 220 °C (dec.), 3.9 µM and > 10 µM.
As for `O=S(=O)(Nc1ccc(O)c2ccccc12)c1cccs1` [Compound 3, N-(4-hydroxynaphthalen-1-yl)thiophene-2-sulfonamide], the “proteasome (chymotrypsin-like) inhibitory activity, in words” value in data set [1] is recorded as “loss of the inhibitory activity”.
Consider `CCOC(=O)CSc1cc(NS(=O)(=O)c2cccs2)c2ccccc2c1O` [Compound 9a, Ethyl 2-(1-hydroxy-4-(thiophene-2-sulfonamido)naphthalen-2-ylthio)acetate], for which the IC50 in data set [1] (setting [5]) is 7.33 ± 2.82 µM.
Still for that read-out and setting: next, `COC(=O)CCSc1cc(NS(=O)(=O)c2cccs2)c2ccccc2c1O` [Compound 9b, Methyl 3-(1-hydroxy-4-(thiophene-2-sulfonamido)naphthalen-2-ylthio)propanoate]: 4.99 ± 2.08 µM; `CCOC(=O)CSc1cc(NS(=O)(=O)c2ccccc2)c2ccccc2c1O` [Compound 9c, Ethyl 2-(1-hydroxy-4-(phenylsulfonamido)naphthalen-2-ylthio)acetate]: 5.27 ± 2.23 µM; `CCOC(=O)CSc1cc(NS(=O)(=O)c2ccc([N+](=O)[O-])cc2)c2ccccc2c1O` [Compound 9e, Ethyl 2-(1-hydroxy-4-(4-nitrophenylsulfonamido)naphthalen-2-ylthio)acetate]: 3.57 ± 1.53 µM.
Regarding `O=C(O)CSc1cc(NS(=O)(=O)c2cccs2)c2ccccc2c1O` [Compound 10a, 2-(1-hydroxy-4-(thiophene-2-sulfonamido)naphthalen-2-ylthio)acetic acid], the half-maximal inhibitory concentration (IC50) is 7.67 ± 1.61 µM in data set [3] (Homo sapiens, MCF7, 72 h); 10.9 ± 2.77 µM in data set [3]; 0.65 ± 0.4 µM in data set [1] (hydronaphthoquinone sulfonamides (Table 9), listed as HLM-008182, read-out: IC50 (μM), inhibition of chymotrypsin-like activity); 1.3 ± 0.76 µM in data set [1] (setting [5]). Besides, the “proteasome (chymotrypsin-like) inhibitory activity, in words” value in data set [1] is on record as “comparable proteasome inhibition activity to the commercial sample HLM-008182”.
`O=C(O)CCSc1cc(NS(=O)(=O)c2cccs2)c2ccccc2c1O` [Compound 10b, 3-(1-hydroxy-4-(thiophene-2-sulfonamido)naphthalen-2-ylthio)propanoic acid]: the IC50 in data set [1] (setting [5]) was > 10 µM.
For `O=C(O)COc1cc(NS(=O)(=O)c2cccs2)c2ccccc2c1O` [Compound 10d, 2-(1-hydroxy-4-(thiophene-2-sulfonamido)naphthalen-2-yloxy)acetic acid], the “proteasome (chymotrypsin-like) inhibitory activity, in words” value in data set [1] is “diminished the inhibitory activity”.
On the same count and under the same terms, next, `O=C(O)CS(=O)(=O)c1cc(NS(=O)(=O)c2cccs2)c2ccccc2c1O` [Compound 10f, 2-(1-hydroxy-4-(thiophene-2-sulfonamido)naphthalen-2-ylsulfonyl)acetic acid]: “diminished the inhibitory activity”.
For `Cn1nnnc1Sc1cc(NS(=O)(=O)c2cccs2)c2ccccc2c1O` [Compound 14d, N-(4-hydroxy-3-(1-methyl-1H-tetrazol-5-ylthio)naphthalen-1-yl)thiophene-2-sulfonamide], the IC50 in data set [1] (setting [5]) worked out at 4.25 ± 2.13 µM. Also, the “proteasome (chymotrypsin-like) inhibitory activity, in words” value in data set [1] was “comparable inhibition potency against proteasome to the lead compound”.
As to `O=S(=O)(Nc1cc(Sc2ncn[nH]2)c(O)c2ccccc12)c1cccs1` [Compound 14e, N-(3-(1H-1,2,4-triazol-5-ylthio)-4-hydroxynaphthalen-1-yl)thiophene-2-sulfonamide], the “proteasome (chymotrypsin-like) inhibitory activity, in words” value in data set [1] is on record as “comparable inhibition potency against proteasome to the lead compound”.
For `CCSc1cc(NS(=O)(=O)c2cccs2)c2ccccc2c1O` [Compound 14j, N-(3-(ethylthio)-4-hydroxynaphthalen-1-yl)thiophene-2-sulfonamide], in data set [1], the “proteasome (chymotrypsin-like) inhibitory activity, in words” value is reported as “the inhibitory activity totally lost”.
As for `O=S(=O)(Nc1cc(SCCO)c(O)c2ccccc12)c1cccs1` [Compound 14k, N-(4-hydroxy-3-(2-hydroxyethylthio)naphthalen-1-yl)thiophene-2-sulfonamide], the “proteasome (chymotrypsin-like) inhibitory activity, in words” value in data set [1] is recorded as “the inhibitory activity totally lost”.
Turning to `COC(=O)CCSc1cc(NS(=O)(=O)c2cc(Cl)c(Cl)s2)c2ccccc2c1O` [Compound 14m, Methyl-3-(4-(4,5-dichlorothiophene-2-sulfonamido)-1-hydroxynaphthalen-2-ylthio)propanoate], in data set [1] (setting [5]), the IC50 came to 1.18 ± 0.3 µM.
`O=C(O)CSc1cc(NS(=O)(=O)c2cc(Cl)c(Cl)s2)c2ccccc2c1O` [Compound 14n, 2-(4-(4,5-dichlorothiophene-2-sulfonamido)-1-hydroxynaphthalen-2-ylthio)acetic acid]: in data set [1] (setting [5]), the IC50 turned out to be 2.07 ± 0.55 µM.
Regarding `O=C(O)CSc1cc(NS(=O)(=O)c2ccc(Cl)cc2)c2ccccc2c1O` [Compound 14p, 2-(4-(4-chlorophenylsulfonamido)-1-hydroxynaphthalen-2-ylthio)acetic acid], the IC50 in data set [1] (setting [5]) worked out at 3.75 ± 0.3 µM.
As for `O=C(O)CSc1cc(NS(=O)(=O)c2ccc3ccccc3c2)c2ccccc2c1O` [Compound 14q, 2-(1-hydroxy-4-(naphthalene-2-sulfonamido)naphthalen-2-ylthio)acetic acid], the “decrease of proteasome inhibition activity relative to comparator compound” value in data set [1] was 3 fold. The IC50 in data set [1] (setting [5]) was determined as 4.83 ± 0.79 µM.
On to `O=C(O)c1ccccc1Sc1cc(NS(=O)(=O)c2ccc(-c3ccccc3)cc2)c2ccccc2c1O` [Compound 14t, 2-(4-(biphenyl-4-ylsulfonamido)-1-hydroxynaphthalen-2-ylthio)benzoic acid], for which the IC50 in data set [1] (setting [5]) was 2.19 ± 0.23 µM.
For `CC(Sc1cc(NS(=O)(=O)c2ccc(Cl)cc2)c2ccccc2c1O)C(=O)O` (centres unmarked) [Compound 14u, 2-(4-(4-chlorophenylsulfonamido)-1-hydroxynaphthalen-2-ylthio)propanoic acid], the “decrease of proteasome inhibition activity relative to comparator compound” value in data set [1] was ~2 fold. The IC50 in data set [1] (setting [5]) was 8.57 ± 0.67 µM.
For `CC(Sc1cc(NS(=O)(=O)c2ccc3ccccc3c2)c2ccccc2c1O)C(=O)O` (centres unmarked) [Compound 14v, 2-(1-hydroxy-4-(naphthalene-2-sulfonamido)naphthalen-2-ylthio)propanoic acid], in that order: ~2 fold and 9.11 ± 0.47 µM.
In turn, `N=C(N)NS(=O)(=O)c1ccc(NC2=C(Cl)C(=O)c3ccccc3C2=O)cc1` [YG1-084, N-carbamimidoyl-4-(3-chloro-1,4-dioxo-1,4-dihydronaphthalen-2-ylamino)benzene-sulfonamide] had a melting point of 294 to 295 °C.
